Results published in US11786464B2, “PH responsive block copolymer compositions and micelles that inhibit MCT 1 and related proteins” (The Board of Regents of the University of Texas System, priority 2020, dated 2023).
Like-named read-outs stand apart in the source and are kept apart here.

Tests used:
TC-1 cells = test: Measurement of lactate and pH in the cell culture medium; type: cell-based; conditions: 1 μM (effective) AZD3965, 24 h, added directly (intact NPs), vs untreated control
Description: All animal procedures were performed with ethical compliance and approval by the Institutional Animal Care and Use Committee at the University of Texas Southwestern Medical Center. Cells were cultured in DMEM medium (10% fetal bovine serum, 100 U/mL penicillin G sodium and 100 μg/mL streptomycin (Pen/Strep), non-essential amino acids, and 20 μM β-mercaptoethanol (β-ME)) at 37° C. in 5% CO2 and the normal level of O2.
For lactate measurement, TC-1 cells were cultured in normal DMEM medium as described above with different drugs: free AZD3965 (1 uM), intact AZD-UPS NPs (1 uM effective AZD3965 concentration), or pretreatment of AZD-UPS NPs in pH 6.0 buffer for pH-activated drug release followed by addition into the cell culture medium. After 24 h incubation, lactate concentration was measured by NOVA BioProfile 4. For pH measurement, TC-1 cells were cultured in DMEM medium (D5030, Sigma) without NaHCO3, and in incubator without CO2 for 24 h, followed by measurement of medium pH.

[1] = Toxicity analysis (body weight, cTnI, ALT, AST) in tumor-bearing mice; type: in vivo
Description: Six to eight week old mice (n=5-7 for each group) were injected subcutaneously with TC-1 (2×10^5) or B16F10 (2×10^5) cells into the right flank. […] Some groups were intraperitoneally injected with 200 μg checkpoint inhibitors (anti-mPD-1, BioXcell, BE0146) for comparison or synergy evaluation. Tumor growth was subsequently measured twice a week using a digital caliper and calculated as 0.5×length×width×height by blinded investigators. Mouse weight was also recorded. Mice were sacrificed when the tumor volumes reached 1,500 mm^3.
Blood of different mouse groups were collected after 4 h. Then alanine transaminase activity assay (Abcam, ab105134), aspartate aminotransferase activity assay (Abcam, ab105135), and mouse cardiac troponin-I ELISA analysis (Life Diagnostics, Inc., Cat. No. CTNI-1-HS) were performed.

TC-1 tumor = test: Tumor growth and survival, TC-1 tumor model; type: in vivo; conditions: TC-1 model, day 27
Description: Six to eight week old mice (n=5-7 for each group) were injected subcutaneously with TC-1 (2×10^5) or B16F10 (2×10^5) cells into the right flank. Animals were treated by 50 mg/kg AZD3965 (administered twice daily by oral gavage for a total of 7 days), or by AZD-UPS NPs (containing 2 mg/kg AZD3965, IV injected at days 7, 10 and 13). Some groups were intraperitoneally injected with 200 μg checkpoint inhibitors (anti-mPD-1, BioXcell, BE0146) for comparison or synergy evaluation. Tumor growth was subsequently measured twice a week using a digital caliper and calculated as 0.5×length×width×height by blinded investigators. Mouse weight was also recorded. Mice were sacrificed when the tumor volumes reached 1,500 mm^3.

in vivo = type: in vivo, mice; conditions: for concentration at 24 h: tumor tissue 24 h after administration, read-out: tumor accumulation of AZD3965
Description: Mouse plasma were collected and added into 1 mL of methanol/water mixture (80/20, v/v) at 0.5, 6 and 24 h after treatment by different regimens. Tissues (heart, liver, kidney and tumor) were collected at 24 h. About 100 mg of tissues were removed, and the wet weight was recorded. The tissues were homogenized in 1 mL of methanol/water mixture (80/20, v/v). The plasma and tissue mixture were centrifuged and the supernatant was collected respectively, dried by a SpeedVac, then dissolved in methanol and measured by HPLC.

[2] = oral administration 50 mg/kg for 7 days, serum 4 h after last treatment, vs untreated

clearance from plasma (in vivo; intravenous injection 2 mg/kg): rapid clearance of the drug
AUC (in vivo; mouse, intravenous 2 mg/kg AZD3965, plasma, read-out: area under the concentration-time (AUC) value): 5400 ± 2500 ng·h/mL
concentration at 24 h (in vivo; mouse, intravenous 2 mg/kg): 290 ± 120 ng/g
concentration at 24 h (in vivo; mouse, oral administration 100 mg/kg (50-fold higher dose)): 4000 ± 3500 ng/g
peak drug plasma concentration (in vivo; oral administration 100 mg/kg, at 30 min, TC-1 tumor-bearing mice): 47 ± 27 µg/mL
SMILES: Cc1[nH]nc(C(F)(F)F)c1Cc1sc2c(c1C(=O)N1C[C@](C)(O)CO1)c(=O)n(C)c(=O)n2C(C)C [AZD3965]
lactate secretion into culture medium (TC-1 cells): significantly decreased the secretion of lactate
pH change of culture medium (TC-1 cells): inhibited the lowering of pH in the medium
level of alanine aminotransferase (ALT) [1, 2]: significantly increased
level of aspartate aminotransferase (AST) [1, 2]: significantly increased
level of cardiac troponin-I (cTnI) [1, 2]: significantly increased
body weight ([1]; oral administration, two weeks of treatment): did not cause weight loss
tumor volume (TC-1 tumor; oral 50 mg/kg twice daily for 7 days, p=0.09 vs untreated): 9.2±4.1×10^2 mm^3
tumor volume (TC-1 tumor; oral AZD3965 in combination with anti-PD1): 8.0±3.1×10^2 mm^3
